Molecules are shown by their SMILES. Converted amounts (≈) assume the structure as drawn.

The test system of this experiment is A2780. As to the kind of experiment: Cytotoxicity against human A2780 cells. The experiment is classed as functional, cell-based.
Turning to `CC[C@H](C)C(=O)c1c2c(c3oc(=O)cc([C@@H](CC)OC(C)=O)c3c1O)CC(C(C)(C)O)O2` (stereo partly specified) [OCHROCARPIN F], the midpoint of inhibition, the IC50, lay at 8.9 µg/mL (≈ 19.9 µM). Under `CC(C)CC(=O)c1c2c(c3oc(=O)cc(-c4ccccc4)c3c1O)CC(C(C)(C)O)O2` (stereo unspecified) stands 6.4 µg/mL (≈ 15.1 µM); under `CC(C)C(=O)c1c2c(c3oc(=O)cc(-c4ccccc4)c3c1O)C=CC(C)(C)O2` [MESUAGIN], 10.8 µg/mL (≈ 27.7 µM); under `CC(C)=CCC1CC2(CC=C(C)C)C(=O)C3=C(OC(C)(C)C(OO)C3)C(C(=O)c3ccccc3)(C2=O)C1(C)C` (stereo unspecified), 8.4 µg/mL (≈ 15.7 µM).

In the case of `CC(C)=CCC1CC2(CC=C(C)C)C(=O)C(C(=O)c3ccccc3)(C(=O)C3=C2OC(C(C)(C)O)C3)C1(C)C` (stereo unspecified) [OCHROCARPINONE C], the 50% inhibitory concentration (IC50) (usually the concentration that inhibits the measured activity by half) was 8.2 µg/mL (≈ 15.8 µM).

Turning to `CC(C)C(=O)c1c(O)c2c(c3c(-c4ccccc4)cc(=O)oc13)OC(C(C)(C)O)C2` (stereo unspecified) [OCHROCARPIN E], 4.9 µg/mL (≈ 12 µM) corresponded to half-maximal inhibition (IC50). As for `CC[C@H](C)C(=O)c1c(O)c2c(-c3ccccc3)cc(=O)oc2c2cc(C(C)(C)O)oc12` [OCHROCARPIN A], the IC50 is 5.2 µg/mL (≈ 12.4 µM). Under `CCC(OC(C)=O)c1cc(=O)oc2c3c(c(C(=O)[C@@H](C)CC)c(O)c12)OC(C(C)(C)O)C3` (single isomer, unassigned) [OCHROCARPIN G] stands 8.6 µg/mL (≈ 19.3 µM); under `CCC(C)C(=O)c1c2c(c3oc(=O)cc(-c4ccccc4)c3c1O)CC(C(C)(C)O)O2` (stereo unspecified), 8.2 µg/mL (≈ 19.4 µM); under `CC[C@H](C)C(=O)c1c(O)c2c(-c3ccccc3)cc(=O)oc2c2cc(C(C)(C)OC)oc12` [OCHROCARPIN D], 6.3 µg/mL (≈ 14.5 µM). With `CCCC(=O)c1c2c(c3oc(=O)cc(-c4ccccc4)c3c1O)CC(C(C)(C)O)O2` (stereo unspecified) the figure was 4.4 µg/mL (≈ 10.8 µM); with `CC(C)CC(=O)c1c(O)c2c(-c3ccccc3)cc(=O)oc2c2cc(C(C)(C)O)oc12` [OCHROCARPIN B], 3.8 µg/mL (≈ 9.04 µM).

With `CC(C)C(=O)c1c(O)c2c(-c3ccccc3)cc(=O)oc2c2cc(C(C)(C)O)oc12` [OCHROCARPIN C], inhibition was half-maximal at 3.7 µg/mL (≈ 9.1 µM) (IC50). Under `CCC(C)C(=O)c1c2c(c3oc(=O)cc(-c4ccccc4)c3c1O)C=CC(C)(C)O2` (stereo unspecified) stands 4.5 µg/mL (≈ 11.1 µM).

Molecule `CC(C)=CCC1CC2(CC=C(C)C)C(=O)C(C(=O)c3ccccc3)(C(=O)C3=C2OC(C)(C)C(OO)C3)C1(C)C` (stereo unspecified) [OCHROCARPINONE A] yielded an IC50 of 6.9 µg/mL (≈ 12.9 µM). Under `CC(C)=CCC1CC2(CC=C(C)C)C(=O)C3=C(OC(C(C)(C)O)C3)C(C(=O)c3ccccc3)(C2=O)C1(C)C` (stereo unspecified) [OCHROCARPINONE B] stands 7.4 µg/mL (≈ 14.3 µM).
